Test in all cases: relative viability (nuclei count vs DMSO), 5 days (fraction); higher = more cells survive
Compound in one experiment: Cc1cc([C@@H](C)Nc2ccccc2C(=O)O)c2nc(N3CCOCC3)cc(=O)n2c1 [AZD6482]
The method in brief: (§1)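 Acceptance criteria were a control CV below 25% and at least one doubling per plate. Lung cancer cell lines in 1536-well plates got five library-drug doses (not always all listed) √10 apart by pinning and were left 5 days with no medium change. Viability divides treated-well nuclei by vehicle-well nuclei and is the median across plates. Nuclei were counted by MetaXpress from 4× Hoechst images.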

Compound in experiment [1]: COc1cc2nc(N3CCCN(C)CC3)nc(NC3CCN(Cc4ccccc4)CC3)c2cc1OC
The method in brief:
as §1

Compound in experiment [2]: COc1cc2nc(N3CCCN(C)CC3)nc(NC3CCN(Cc4ccccc4)CC3)c2cc1OC + Cc1cc(Nc2cc(N3CCN(C)CC3)nc(Sc3ccc(NC(=O)C4CC4)cc3)n2)n[nH]1 [Tozasertib] (partner 0.1 µM)
The gist of the method:
(§2)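 For relative viability, nuclei counts in treated wells were divided by those in vehicle wells. Lung cancer cell lines had been pin-tool dosed in 1536-well plates the day after seeding and cultured for 5 days, then fixed and stained in one step (final 0.05% Triton X-100, 1% formaldehyde, 1 ug/ml Hoechst) and imaged at 4×. Doses were one drug alone or a fixed anchor-drug dose plus five library-drug doses (not always all listed) in √10 steps, and values are duplicate-plate medians.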

Compound in experiment [3]: COc1cc2nc(N3CCCN(C)CC3)nc(NC3CCN(Cc4ccccc4)CC3)c2cc1OC + CC(=O)c1c(C)c2cnc(Nc3ccc(N4CCNCC4)cn3)nc2n(C2CCCC2)c1=O [Palbociclib] (partner 0.5 µM)
The method in brief: as §2

As to UMC-11, the relative viability with AZD6482 (0.08 µM) came to 0.949; with AZD6482 (0.253 µM), 0.94; with AZD6482 (0.8 µM), 1.01; in the experiment with AZD6482 (2.53 µM) it was 0.736; with AZD6482 (8 µM), 1.22; in experiment [1] (0.2 µM) it was 0.998. The relative viability in experiment [1] (0.6325 µM) was 0.973; in experiment [1] (2 µM), 1.06; in experiment [1] (6.325 µM) it was 0.932; in experiment [2] (first compound 0.2 µM), 0.202; in experiment [2] (first compound 0.6325 µM), 0.214; in experiment [2] (first compound 2 µM), 0.212. Besides, the relative viability amounted to 0.2 in experiment [2] (first compound 6.325 µM); 0.374 in experiment [3] (first compound 0.2 µM); 0.389 in experiment [3] (first compound 0.6325 µM); 0.317 in experiment [3] (first compound 2 µM); 0.259 in experiment [3] (first compound 6.325 µM).

(Values after the supplement of paper PMC10307832.)
